Measured values: PMC2866470, “Teratogenic Effects of Diatom Metabolites on Sea Urchin Paracentrotus lividus Embryos” (Marine Drugs, 2010)
Like-named read-outs stand apart in the source and are kept apart here.

How the values were obtained:
[1] = test system: Sphaerechinus granularis embryos; conditions: cited from earlier work
[2] = test system: Paracentrotus lividus embryos; assay: Embryotoxicity test: inhibition of first cell cleavage in sea urchin embryos; assay type: in vivo; conditions: for Concentration at which arrest (100% blockage) of cell cleavage occurs: circa 90 min after fertilization, 20 °C
Description: (§1) Paracentrotus lividus (Lamarck) sea urchins were collected during the breeding season by SCUBA diving in the Gulf of Naples and transported in an insulated box to the laboratory, within 1 h after collection, and maintained in captivity in well-aerated water at 18 °C in an open circuit. Living organisms were injected with 0.2 mL of 0.2 M acetylcholine (SIGMA-Aldrich, Milan, Italy) through the peribuccal membrane to induce gamete ejection. Spawned eggs were allowed to settle and were washed three times with 0.22 micron filtered sea water (FSW); eggs were then diluted to a final concentration of 3000 eggs mL^−1. Concentrated sperm was collected ‘dry’, mixing samples from at least three different males and stocking undiluted at +4 °C. Sperm mix was diluted 10 μL in 10 mL SW just before insemination and an aliquot of circa 100 μL of this solution was added to 100 mL of egg suspension. At 2–4 min after sperm addition the eggs were checked for successful fertilization and excess sperm were removed by washing the eggs once with FSW.
(§2) PUAs and PUFAs were tested on sea urchin early development. […] All concentrations were tested on egg groups collected from three different females. Groups of eggs from the same animals were used as controls. To test the effect of the solvent, other groups of embryos were incubated in 10% methanol, which was the highest concentration of solvent used for incubation experiments. Embryos were kept at 20 °C in a controlled temperature chamber under 12:12 light:dark cycle.
Cleavage inhibition was assessed by counting at least 200 embryos for each well.
Statistical analysis and IC50 calculation were made by using the Prism software (GraphPad software inc. La Jolla, CA, USA).

[3] = test system: Paracentrotus lividus embryos; assay: Embryotoxicity test: percentage of hatched sea urchin larvae after 24 hours; assay type: in vivo; conditions: for Effect on the transition to swimming blastula / larval stage: in vivo; for Concentration of total inhibition of hatching viability (0% of hatched larvae) / Hatching viability: 24 hours; for Hatching viability: at concentrations of circa 3.0 μM
Description: as §1
as §2, with “cycle. […]” for “cycle.”

[4] = test system: Paracentrotus lividus embryos and pluteus larvae; assay: Teratogenic effect after 48 hours of incubation (abnormalities and mortality of larvae); assay type: in vivo
Description: PUAs were also tested for their teratogenic effect after long term incubations. After 48 hours of incubation with test compounds, the number of abnormalities and mortality were assessed according to Pagano et al.. Embryos at various stages were observed under a light microscope (Zeiss Axiovert 135TV). Pictures were taken using a Zeiss Axiocam connected directly to the microscope.

[5] = test system: Paracentrotus lividus embryos and pluteus larvae; assay: TUNEL fluorescence labeling of apoptosis in larvae after 48 hours of exposure; assay type: in vivo
Description: P. lividus embryos were incubated as described above in decadienal at concentrations ranging from 1.32 to 6.58 μM for 48 hours. Pluteus larvae were fixed in paraformaldehyde 4% (SIGMA-Aldrich, Milan, Italy) in sea water for 2 hours at room temperature. Fixed sea urchin embryos were washed several times in phosphate saline buffer 10 mM at pH 7.4 (PBS) to remove paraformaldehyde and then incubated for 1 h in a solution of 0.1% Triton X-100 and 0.1% sodium citrate, at 4 °C. Apoptosis was assessed using TdT-mediated dUTP nick end labeling (TUNEL) (Roche Diagnostics) according to manufacturer’s instructions. After washing in PBS containing 1% bovine albumin serum (BSA, Sigma-Aldrich), treated samples were incubated at 37 °C for 90 min in TUNEL solution in a humidified chamber, in the dark. Control embryos were fixed and stained as described above. To obtain TUNEL-positive control samples, embryos were incubated for 10 min in 50 mM Tris-HCl, pH 7.5, 10 mM MgCl2, 0.1% dithiothreitol, containing 250 μg mL^−1 DNase I (grade II from bovine pancreas; Boehringer GmbH, Mannheim, Germany) at room temperature. Negative controls were obtained by incubating embryos in label solution only, as recommended by the manufacturer. […] Pictures were taken using a Zeiss Axiocam connected directly to the microscope.

[6] = Decadienal stability in nutrient enriched sea water (f/2 medium), spectrophotometric; assay type: physicochemical
Description: Decadienal stock solution was prepared by diluting a known amount of the substance (determined by weight) in methanol. The methanolic solution was further diluted in autoclaved f/2 medium to achieve decadienal concentration ranging from 0.66 to 32.89 μM. A standard curve was generated by reporting the absorbance at 274 nm of decadienal as a function of its concentration (each determination was performed in triplicate).
To verify decadienal stability, solutions were prepared in triplicate at a starting concentration of 8.96 μM in 250 mL f/2 and incubated in a polystyrene culture flask closed with a screw cap. The UV spectrum and absorbance reading at 274 nm were assessed with time. Decadienal concentration was determined on the basis of a standard curve.

Ciona intestinalis = test system: Ciona intestinalis; parameters: method as in PMID 12874802; conditions: printed equivalent 1.32 μM; cited from earlier work
pelagic copepods = test system: pelagic copepods; parameters: method as in ref 28 = [28]; 28 Ianora A Romano G Carotenuto Y Esposito F Roncalli V Buttino I Miralto A Impact of the diatom oxylipin 15S-HEPE on the reproductive success of the copepod Temora stylifera Hydrobiologia 2010 submit; conditions: printed equivalent 6.58 μM; cited from earlier work
early P. lividus embryos = test system: early P. lividus embryos; parameters: method as in PMID 12939379; conditions: cited from earlier work
[7] = test system: Paracentrotus lividus embryos; parameters: method as in ref 18 = [18]; 18 Sellem F Pesando D Bodennec G El Abed A Girard JP Toxic effects of Gymnodinium cf. mikimotoi unsaturated fatty acids to gametes and embryos of the sea urchin Paracentrotus lividus Water Res 2000 34; conditions: P. lividus; cited from earlier work

For `O=C/C=C/C=C\CCCC(=O)O` [9-oxo-nona-5Z,7E-dienoic acid, reference compound], the “Activity on embryo cleavage” value ([1]; S. granularis embryos) is listed as “not inhibitory”.
In the case of `CCC=CCC=CCC=CCC=CCC=CCC=CCCC(=O)O` [DHA, 4,7,10,13,16,19-docosahexaenoic acid], the “Percentage of embryos that underwent first cleavage” value ([2]; at 304 μM, 90 min after fertilization) is reported as 34% and the “Effect on the transition to swimming blastula / larval stage” value [3] is reported as “interfered with the transition to the larval stage”.
In the case of `CC/C=C\C/C=C\C/C=C\C/C=C\C/C=C\CCCC(=O)OC` [EPA methyl-ester], the “Activity on cleavage compared with EPA” value ([2]; in vivo) is reported as “drastic reduction in the activity” and the “Concentration of total inhibition of hatching viability (0% of hatched larvae)” value [3] is reported as 158 µM.
With `CCC=CCC=CCC=CCC=CCC=CCCCC(=O)O` [EPA, 5,8,11,14,17-eicosapentaenoic acid] the “Concentration at which arrest (100% blockage) of cell cleavage occurs” value ([2]; circa 120 eggs mL−1) was 331 µM, the “Concentration of total inhibition of hatching viability (0% of hatched larvae)” value [3] was “approximately 83 μM” and the “Effect on the transition to swimming blastula / larval stage” value [3] was “interfered with the transition to the larval stage”.
With `CCCCC/C=C/C=C/C=O` [decadienal, 2-trans,4-trans-decadienal] the IC50 ([2]; 95% CI = 2.96 to 3.06 μM, circa 120 eggs mL−1) was 3.01 µM, the “Concentration at which arrest (100% blockage) of cell cleavage occurs” value ([2]; circa 120 eggs mL−1) was 5.26 µM and the “Concentration of total inhibition of hatching viability (0% of hatched larvae)” value [3] was 3.95 µM. The Hatching viability [3] was less than 50%, the Abnormal plutei ([4]; 1.32 μM, 48 hours, ± SD) was 11.08% ± 4.4 and the Retarded larvae ([4]; 1.32 μM, 48 hours, ± SD) was 11.64% ± 8.2. For the same compound, the “Dead and pre-hatching embryos” value ([4]; 2.63 μM, 48 hours, ±22.42 SD) was “up to 29.4%”, the Dead embryos ([4]; 3.95 μM, 48 hours, ± SD) was 53.7% (±24.7 SD) and the “Embryos not able to survive” value ([4]; 5.26 μM, 48 hours, ± SD) was 85.1% (±24.7 SD). The “Concentration at which embryos were unable to develop beyond the blastula stage” value ([4]; in vivo) was no less than 3.95 µM, the “Sub-lethal concentrations that increased abnormal plutei and delayed development” value ([4]; newly fertilized eggs, 48 hours) was 1.32 to 5.26 µM and the “Number of embryos presenting a high degree of apoptosis (TUNEL)” value ([5]; 1.32 μM) was “more or less the same as in the control”. For the same compound, the “Larvae TUNEL-positive in the entire body” value ([5]; 2.63 μM) was “approximately 80%”, the “Larvae TUNEL-positive” value ([5]; 3.95 μM) was “almost all of the larvae were positively stained” and the “Decadienal concentration in f/2 medium” value ([6]; after 24 hours (start of the gradual decrease), 8.96 μM starting concentration) was 7.92 (±0.3 SD) μM. For the same compound, the “Change of initial concentration” value ([6]; after 24 hours, f/2 medium, 8.96 μM starting concentration) was 11.70%, the “Decadienal concentration in f/2 medium” value ([6]; after seven days of incubation, natural light, 20 °C, closed vessel, 8.96 μM starting concentration) was 4.63 (±0.017) μM and the “Time for which the aldehyde can be detected spectrophotometrically” value ([6]; f/2 medium) was “up to 14 days”. The “Time without significant change of the initial concentration” value ([6]; f/2 medium, 8.96 μM starting concentration, closed flask, 20 °C) was “at least six”, the “Minimum dose to inhibit 100% of embryo cleavage” value ([1]; S. granularis embryos) was “about 20 μM” and the IC50 ([1]; S. granularis embryos, read-out: IC50 of cleavage inhibition) was 7.3 µM. The IC50 ([1]; S. granularis, low egg density, read-out: IC50 of blockage of cell divisions in newly fertilized eggs) was 1.3 µM, the “Sub-lethal concentration inducing abnormal tadpole larvae” value (Ciona intestinalis) was 0.2 µg/mL and the “Concentration to induce malformations and apoptosis” value (pelagic copepods) was 1000 ng/mL. The “Concentration inducing apoptosis relative to the dose required to induce 100% cleavage inhibition” value (early P. lividus embryos) was “five”.
In the case of `CC/C=C/C=C/C=O` [heptadienal, 2-trans,4-trans-heptadienal], the “Concentration at which arrest (100% blockage) of cell cleavage occurs” value ([2]; circa 120 eggs mL−1) is reported as 27.27 µM, the “Concentration of total inhibition of hatching viability (0% of hatched larvae)” value [3] is reported as 11.36 µM and the Hatching viability [3] is reported as greater than 90%.
For `CCCCCC=CCC=CCCCCCCCC(=O)O` [linoleic, 9,12-octadecadienoic acid], the Activity on cleavage ([2]; highest concentration tested 357 μM, 90 min after fertilization) was “no activity” and the “Hatching (percentage of embryos)” value ([3]; at 357 μM) was 60%.
For `CCC=CCC=CCC=CCC=CCC=CCC(=O)O` [octadecapentaenoic acid], the “Concentration of total blockage of first cleavage” value [7] is given as no less than 1 mM.
In the case of `CCC/C=C/C=C/C=O` [octadienal, 2-trans,4-trans–octadienal], the “Concentration at which arrest (100% blockage) of cell cleavage occurs” value ([2]; circa 120 eggs mL−1) is reported as 16.13 µM, the “Concentration of total inhibition of hatching viability (0% of hatched larvae)” value [3] is reported as 8.08 µM and the Hatching viability [3] is reported as greater than 90%.
In the case of `C=CC/C=C/C=C/C=O` [octatrienal, 2-trans,4-trans,7-octatrienal], the “Concentration at which arrest (100% blockage) of cell cleavage occurs” value ([2]; circa 120 eggs mL−1) is reported as 11.47 µM.
In the case of `CCC=CCC=CCC=CCC=CCCCCC(=O)O` [stearidonic acid, 6,9,12,15-octadecatetraenoic acid], the “Concentration at which arrest (100% blockage) of cell cleavage occurs” value ([2]; circa 120 eggs mL−1) is reported as 181 µM and the “Effect on the transition to swimming blastula / larval stage” value [3] is reported as “interfered with the transition to the larval stage”.
For `CCCCCCCCCCCCC=O` [tridecanal], the “Effect on first cleavage” value ([2]; up to 25 μM, higher concentrations not tested due to solubility problems in sea water) was “did not interfere with first cleavage”.
With `CCCCCC=CCC=CCC=CCCCCC(=O)O` [γ-linolenic, 6,9,12-octadecatrienoic acid] the Activity on cleavage ([2]; highest concentration tested 359 μM, 90 min after fertilization) was “no activity” and the “Hatching (percentage of embryos)” value ([3]; at 360 μM) was 50%.
